Reference: ChEMBL document CHEMBL5154925, “Design and Optimization of Thienopyrimidine Derivatives as Potent and Selective PI3Kδ Inhibitors for the Treatment of B-Cell Malignancies” (J Med Chem, 2022)
≈ marks a conversion by molar mass, not a printed value. Calls of active or inactive are those of the source. The rule behind the calls is not given here.

How the values were obtained:
Pfeiffer [1] = assay: Antitumour activity against human Pfeiffer cells xenografted in nude mouse assessed as reduction in Ki67 expression in tumor at 75 mg/kg, po BID for 21 days by immunohistochemical analysis; type: functional, organism-based; conditions: time 21.0 day
[2] = target: T1, Phosphatidylinositol 4,5-bisphosphate 3-kinase catalytic subunit delta isoform (Homo sapiens, UniProt O00329); assay: Inhibition of PI3Kdelta (unknown origin) using PIP2 as substrate measured after 1 hr in presence of ATP by ADP-glo luminescence assay
T1 sequence (O00329 whole entry): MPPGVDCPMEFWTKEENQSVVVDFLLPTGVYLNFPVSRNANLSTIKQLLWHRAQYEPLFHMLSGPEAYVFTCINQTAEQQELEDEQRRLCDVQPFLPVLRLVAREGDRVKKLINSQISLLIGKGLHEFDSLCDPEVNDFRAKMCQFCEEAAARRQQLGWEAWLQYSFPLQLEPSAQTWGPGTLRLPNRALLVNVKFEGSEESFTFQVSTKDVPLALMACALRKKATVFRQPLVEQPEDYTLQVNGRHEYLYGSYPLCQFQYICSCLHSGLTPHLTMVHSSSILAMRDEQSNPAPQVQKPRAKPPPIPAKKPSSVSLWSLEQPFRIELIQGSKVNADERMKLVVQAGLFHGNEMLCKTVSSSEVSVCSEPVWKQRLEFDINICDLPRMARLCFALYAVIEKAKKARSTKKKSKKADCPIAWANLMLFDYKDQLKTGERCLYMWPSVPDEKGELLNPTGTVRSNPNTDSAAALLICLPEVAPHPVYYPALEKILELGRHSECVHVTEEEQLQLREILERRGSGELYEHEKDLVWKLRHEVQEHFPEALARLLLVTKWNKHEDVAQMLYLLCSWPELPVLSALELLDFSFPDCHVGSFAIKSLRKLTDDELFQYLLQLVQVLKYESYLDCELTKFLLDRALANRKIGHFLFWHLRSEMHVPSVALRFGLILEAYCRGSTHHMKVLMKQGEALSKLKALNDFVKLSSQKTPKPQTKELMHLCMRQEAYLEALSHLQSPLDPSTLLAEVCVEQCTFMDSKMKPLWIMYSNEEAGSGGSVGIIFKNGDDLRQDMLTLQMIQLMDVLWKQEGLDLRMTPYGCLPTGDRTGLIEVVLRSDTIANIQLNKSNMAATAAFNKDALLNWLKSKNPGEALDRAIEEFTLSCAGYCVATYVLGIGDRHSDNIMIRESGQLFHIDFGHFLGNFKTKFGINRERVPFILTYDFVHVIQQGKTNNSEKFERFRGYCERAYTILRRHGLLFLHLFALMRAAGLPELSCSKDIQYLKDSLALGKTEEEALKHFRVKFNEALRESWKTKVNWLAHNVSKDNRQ

[3] = Solubility of the compound in FaSSIF; type: physicochemical
SU-DHL-6 = assay: Antiproliferative activity against human SU-DHL-6 cells assessed as cell growth inhibition incubated for 96 hrs by cell titer glo assay; type: functional, cell-based; conditions: SU-DHL-6, 96 h
SUD4 = assay: Antiproliferative activity against human SU-DHL-4 cells assessed as cell growth inhibition incubated for 96 hrs by cell titer glo assay; type: functional, cell-based; conditions: SU-DHL-4, 96 h
Rec1 = assay: Antiproliferative activity against human REC1 cells assessed as cell growth inhibition incubated for 96 hrs by cell titer glo assay; type: functional, cell-based; conditions: Rec1, 96 h
Pfeiffer [4] = assay: Induction of cell cycle arrest in human Pfeiffer cells assessed as accumulation at G0/G1 phase at 2 to 50 uM after 24 hrs by propidium iodide and RNAase staining based flow cytometric analysis; type: functional; conditions: dose 2-50 µM
Pfeiffer [5] = assay: Induction of apoptosis in human Pfeiffer cells assessed as viable […] cells at 10 uM incubated for 48 hrs by annexin V-FITC staining based flow cytometry (reference value: 81.14 %); type: functional
Pfeiffer [6] = assay: Induction of apoptosis in human Pfeiffer cells assessed as viable […] cells at 50 uM incubated for 48 hrs by annexin V-FITC staining based flow cytometry (reference value: 81.14 %); type: functional
[7] = Tmax in ICR mouse at 3 mg/kg, iv measured upto 24 hrs by LC-MS/MS analysis; type: ADME, organism-based; conditions: in vivo
[8] = Cmax in ICR mouse at 3 mg/kg, iv measured upto 24 hrs by LC-MS/MS analysis; type: ADME, organism-based; design: time < 24 hrs, dose 3 mg/kg, route iv; conditions: in vivo
[9] = Cmax in ICR mouse at 30 mg/kg, po measured upto 24 hrs by LC-MS/MS analysis; type: ADME, organism-based; design: time < 24 hrs, dose 30 mg/kg, route po; conditions: in vivo
[10] = AUC (0 to t) in ICR mouse at 30 mg/kg, po measured upto 24 hrs by LC-MS/MS analysis; type: ADME, organism-based; design: time < 24 hrs, dose 30 mg/kg, route po; conditions: in vivo
[11] = Apparent volume of distribution in ICR mouse at 3 mg/kg, iv measured upto 24 hrs by LC-MS/MS analysis; type: ADME, organism-based; conditions: in vivo, read-out: Vz

CCC(=O)N1CC[C@H](Nc2ncnc3sc(-c4cnc(OC)c(OC)c4)cc23)C1
Activity (Pfeiffer [1]): Active
IC50 [2]: 5.7 nM
solubility [3]: 102 µM (≈ 42.1 µg/mL)
IC50 (SU-DHL-6): 1430 nM
IC50 (SUD4): 3.75 µM
IC50 (Rec1): 1210 nM
Activity (Pfeiffer [4]): Active
Activity (Pfeiffer [5]): 65.34%
Activity (Pfeiffer [6]): 33.75%
Tmax [7]: 4.8 min
Cmax [8]: 3190 ng/mL
Cmax [9]: 372 ng/mL
AUC(0-t) at 24 h [10]: 1030 ng·h/mL
Vd [11]: 5.49 L/kg
